From US20250026721A1, “COMPOUNDS AND METHODS FOR MODULATING RAS-PI3K” (Vividion Therapeutics, Inc., priority 2023, published 2025)

Tests used:
PIK3CA = molecular target: T1, PIK3CA (Homo sapiens, UniProt P42336); test: In vitro ELISA target engagement assay for PIK3CA in Jurkat cellular lysate (competition with PIK3CA Biotin Probe); format: binding; conditions: 1 hour at rt, then 500 nM PIK3CA Biotin Probe, read-out: Elisa Target Engagement Assay (TE50)
T1 construct: endogenous in cells; host or cells: Jurkat cell lysate
How it was run: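 Competition format in Jurkat lysate: compound (serial dilutions, top 200 μM) for 1 h at rt, then 500 nM final biotinylated PIK3CA probe for 1 h at rt. Sandwich ELISA with capture antibody and Neutravidin-HRP luminescence read-out measured probe-labelled PIK3CA, giving TE50.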

PIK3CA_C242 = molecular target: T2, PIK3CA_C242 (Homo sapiens, UniProt P42336); test: Proteomic TE50 (IA-DTB / TMT mass spectrometry) in Jurkat cell lysate; format: binding; conditions: 1 hour at rt, 7-point dose response
T2 construct: endogenous in cells; host or cells: Jurkat cell lysate
Procedure: Example 4. Proteomic TE50 In vitro TE50 values for PIK3CA_C242 were obtained by treating 500 μg of cell lysate generated from Jurkat cells with DMSO or compound for 1 hour at rt followed by the addition of 200 μM desthiobiotin polyethyleneoxide iodoacetamide (IA-DTB) in DMSO for one hour at rt. Compounds were serially diluted 1:5 for a total of 7 points in order to generate dose response curves. Samples were then precipitated by the addition of 8× ice cold acetone and incubated at -80° C. for two hours. Protein was then pelleted by centrifugation (4,200 RPM, 45 min, 4° C.). The pelleted material was resuspended in 9M urea, 50 mM ammonium bicarbonate and proteins were reduced and alkylated by the addition of DTT and iodoacetamide (10 and 30 mM, respectively). Following reduction and alkylation, samples were exchanged into 2M urea (Zeba spin desalting plates, Thermo Fisher) and digested with Trypsin. IA-DTB labeled peptides were isolated with streptavidin agarose resin. Enriched peptides were eluted by the addition of 50% acetonitrile (ACN) 0.1% formic acid (FA) and dried in a SpeedVac vacuum concentrator. […] Reactions were quenched by the addition of 6.5 μL of 5% hydroxylamine. Samples were then combined and desalted on a Evolute express ABN plate (Biotage, 600-0010-PX01). Targeted TMT measurements were collected using an Orbitrap Lumos Tribrid Mass Spectrometer (Thermo Scientific) coupled to an UltiMate 3000 Series Rapid Separation LC system and autosampler (Thermo Scientific Dionex). Peptides were eluted onto a custom C18 capillary analytical column (75-μm inner diameter fused silica, packed with Acclaim PepMap C18 resin; Thermo Scientific) using an Acclaim PepMap 100 (Thermo 164535) loading column, and separated at a flow rate of […]. Data were acquired using a specific MS3-based TMT method targeting the peptide containing […], +2 charge state) where MS2 peptide fragmentation is triggered upon detection of the peptide precursor ion. Subsequent MS3 analysis was then performed using pre-selected peptide fragment ions that were isolated for fragmentation using synchronous precursor selection. RAW files were converted to MZXML format and searched with the SEQUEST algorithm using the […] software package. TMT quantitation was performed with a filter requiring at least ten summed signal-to-noise (S/N) for control channels. TE50 values were calculated from 7-point dose response curves created using the reporter ion S/N for each channel.

T2 sequence (P42336 whole entry): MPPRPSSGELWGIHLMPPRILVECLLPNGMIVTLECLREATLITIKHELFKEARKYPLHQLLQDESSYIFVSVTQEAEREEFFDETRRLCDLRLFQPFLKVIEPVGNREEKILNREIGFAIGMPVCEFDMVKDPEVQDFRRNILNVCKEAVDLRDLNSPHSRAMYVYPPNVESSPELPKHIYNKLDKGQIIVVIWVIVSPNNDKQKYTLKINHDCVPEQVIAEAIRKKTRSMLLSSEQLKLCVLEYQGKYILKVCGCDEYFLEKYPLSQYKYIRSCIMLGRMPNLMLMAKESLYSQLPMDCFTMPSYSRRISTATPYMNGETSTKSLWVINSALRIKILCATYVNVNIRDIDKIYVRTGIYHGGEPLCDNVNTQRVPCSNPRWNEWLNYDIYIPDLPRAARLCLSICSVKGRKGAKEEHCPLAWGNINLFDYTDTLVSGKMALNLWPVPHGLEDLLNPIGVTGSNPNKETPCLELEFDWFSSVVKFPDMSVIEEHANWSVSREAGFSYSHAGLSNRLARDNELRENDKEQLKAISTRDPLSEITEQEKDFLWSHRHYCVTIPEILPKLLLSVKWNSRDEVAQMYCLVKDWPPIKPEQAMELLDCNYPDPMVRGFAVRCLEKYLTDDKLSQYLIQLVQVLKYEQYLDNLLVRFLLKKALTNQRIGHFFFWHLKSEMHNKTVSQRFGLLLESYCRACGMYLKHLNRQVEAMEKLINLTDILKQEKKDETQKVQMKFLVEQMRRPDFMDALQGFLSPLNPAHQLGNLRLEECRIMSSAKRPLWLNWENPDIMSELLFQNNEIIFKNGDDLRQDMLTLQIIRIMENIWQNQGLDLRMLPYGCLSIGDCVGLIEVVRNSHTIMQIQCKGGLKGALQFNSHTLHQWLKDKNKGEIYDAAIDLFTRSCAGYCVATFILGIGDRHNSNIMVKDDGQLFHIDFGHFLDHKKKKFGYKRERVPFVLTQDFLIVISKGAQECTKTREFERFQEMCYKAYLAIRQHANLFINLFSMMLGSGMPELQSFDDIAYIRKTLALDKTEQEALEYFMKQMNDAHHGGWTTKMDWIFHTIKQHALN
T2 sequence (P27986 whole entry partner): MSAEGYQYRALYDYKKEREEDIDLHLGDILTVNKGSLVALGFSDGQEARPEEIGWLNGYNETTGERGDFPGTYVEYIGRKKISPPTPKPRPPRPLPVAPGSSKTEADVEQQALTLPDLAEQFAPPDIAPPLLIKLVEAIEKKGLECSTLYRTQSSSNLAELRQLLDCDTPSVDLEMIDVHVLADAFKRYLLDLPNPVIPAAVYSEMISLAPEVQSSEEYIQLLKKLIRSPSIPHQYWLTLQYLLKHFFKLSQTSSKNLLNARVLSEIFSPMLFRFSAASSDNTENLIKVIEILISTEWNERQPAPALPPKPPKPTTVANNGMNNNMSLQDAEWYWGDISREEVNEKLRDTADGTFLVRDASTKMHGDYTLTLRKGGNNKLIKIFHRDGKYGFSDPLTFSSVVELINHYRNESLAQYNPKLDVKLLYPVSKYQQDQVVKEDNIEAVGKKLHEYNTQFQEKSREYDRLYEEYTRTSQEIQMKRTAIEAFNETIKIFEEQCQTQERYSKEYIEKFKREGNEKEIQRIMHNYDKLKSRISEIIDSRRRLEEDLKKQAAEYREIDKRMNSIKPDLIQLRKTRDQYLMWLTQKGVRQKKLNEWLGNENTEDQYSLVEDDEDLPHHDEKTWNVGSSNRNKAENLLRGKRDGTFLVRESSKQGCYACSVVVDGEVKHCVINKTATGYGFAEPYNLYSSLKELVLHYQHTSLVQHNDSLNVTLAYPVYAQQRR
T1 sequence (P42336 whole entry): as the sequence (P42336 whole entry) above
T1 sequence (P27986 whole entry partner): as the sequence (P27986 whole entry partner) above

IC50 (PIK3CA) [µM]	IC50 (PIK3CA_C242) [µM]	SMILES
0.06	0.107	COc1cccc(-c2cc(N(C)C)ccc2S(=O)(=O)N2CCC(F)(C(=O)N[C@@H](C)/C=C\S(C)(=O)=O)CC2)c1 (racemic) [Compound 86, 1-[4-(Dimethylamino)-2-(3-methoxyphenyl)phenyl]sulfonyl-4-fluoro-N-[rac-(Z, 1S)-1-methyl-3-methylsulfonyl-allyl]piperidine-4-carboxamide]
0.11	0.246	COc1cccc(-c2cc(Cl)ccc2S(=O)(=O)N2CCC(F)(C(=O)N[C@@H](C)/C=C\S(C)(=O)=O)CC2)c1 [Compound 1, (S,Z)-1-((5-chloro-3′-methoxy-[1,1′-biphenyl]-2-yl)sulfonyl)-4-fluoro-N-(4-(methylsulfonyl)but-3-en-2-yl)piperidine-4-carboxamide]
0.09	0.11	C[C@@H](/C=C\S(C)(=O)=O)NC(=O)C1(F)CCN(S(=O)(=O)c2ccc(Cl)cc2-c2cccc(Cl)c2)CC1 [Compound 3, (S,Z)-1-((3′,5-dichloro-[1,1′-biphenyl]-2-yl)sulfonyl)-4-fluoro-N-(4-(methylsulfonyl)but-3-en-2-yl)piperidine-4-carboxamide]
0.14	0.206	COc1ccc(S(=O)(=O)N2CCC(F)(C(=O)N[C@@H](C)/C=C\S(C)(=O)=O)CC2)c(-c2ccccc2)c1 [Compound 4, (S,Z)-4-fluoro-1-((5-methoxy-[1,1′-biphenyl]-2-yl)sulfonyl)-N-(4-(methylsulfonyl)but-3-en-2-yl)piperidine-4-carboxamide]
0.2	0.187	COc1cccc(-c2cc(OC)ccc2S(=O)(=O)N2CCC(F)(C(=O)N[C@@H](C)/C=C\S(C)(=O)=O)CC2)c1 [Compound 5, (S,Z)-1-((3′,5-dimethoxy-[1,1′-biphenyl]-2-yl)sulfonyl)-4-fluoro-N-(4-(methylsulfonyl)but-3-en-2-yl)piperidine-4-carboxamide]
0.05	0.026	C[C@@H](/C=C\S(C)(=O)=O)NC(=O)C1(F)CCN(S(=O)(=O)c2ccc(Cl)cc2-c2ccccc2Cl)CC1 [Compound 6, (S,Z)-1-((2′,5-dichloro-[1,1′-biphenyl]-2-yl)sulfonyl)-4-fluoro-N-(4-(methylsulfonyl)but-3-en-2-yl)piperidine-4-carboxamide]
0.09	0.107	COc1ccc(S(=O)(=O)N2CCC(F)(C(=O)N[C@@H](C)/C=C\S(C)(=O)=O)CC2)c(-c2cccc(Cl)c2)c1 [Compound 7, (S,Z)-1-((3′-chloro-5-methoxy-[1,1′-biphenyl]-2-yl)sulfonyl)-4-fluoro-N-(4-(methylsulfonyl)but-3-en-2-yl)piperidine-4-carboxamide]
0.69	1.35	C[C@@H](/C=C\S(C)(=O)=O)NC(=O)C1(F)CCN(S(=O)(=O)c2ccc(Cl)cc2-c2cccc(C#N)c2)CC1 [Compound 8, (S,Z)-1-((5-chloro-3′-cyano-[1,1′-biphenyl]-2-yl)sulfonyl)-4-fluoro-N-(4-(methylsulfonyl)but-3-en-2-yl)piperidine-4-carboxamide]
0.57	0.507	COc1cccc(-c2cc(F)ccc2S(=O)(=O)N2CCC(F)(C(=O)N[C@@H](C)/C=C\S(C)(=O)=O)CC2)c1 [Compound 9, (S,Z)-4-fluoro-1-((5-fluoro-3′-methoxy-[1,1′-biphenyl]-2-yl)sulfonyl)-N-(4-(methylsulfonyl)but-3-en-2-yl)piperidine-4-carboxamide]
0.32	0.275	CCOc1cccc(-c2cc(Cl)ccc2S(=O)(=O)N2CCC(F)(C(=O)N[C@@H](C)/C=C\S(C)(=O)=O)CC2)c1 [Compound 10, (S,Z)-1-((5-chloro-3′-ethoxy-[1,1′-biphenyl]-2-yl)sulfonyl)-4-fluoro-N-(4-(methylsulfonyl)but-3-en-2-yl)piperidine-4-carboxamide]
0.47	0.33	CCCOc1cccc(-c2cc(Cl)ccc2S(=O)(=O)N2CCC(F)(C(=O)N[C@@H](C)/C=C\S(C)(=O)=O)CC2)c1 [Compound 14, (S,Z)-1-((5-chloro-3′-propoxy-[1,1′-biphenyl]-2-yl)sulfonyl)-4-fluoro-N-(4-(methylsulfonyl)but-3-en-2-yl)piperidine-4-carboxamide]
0.41	0.4	C[C@@H](/C=C\S(C)(=O)=O)NC(=O)C1(F)CCN(S(=O)(=O)c2ccc(Cl)cc2-c2cccc(OC3CC3)c2)CC1 [Compound 15, (S,Z)-1-((5-chloro-3′-cyclopropoxy-[1,1′-biphenyl]-2-yl)sulfonyl)-4-fluoro-N-(4-(methylsulfonyl)but-3-en-2-yl)piperidine-4-carboxamide]
0.2	0.21	COc1ccc(Cl)c(-c2cc(Cl)ccc2S(=O)(=O)N2CCC(F)(C(=O)N[C@@H](C)/C=C\S(C)(=O)=O)CC2)c1 [Compound 16, (S,Z)-1-((2′,5-dichloro-5′-methoxy-[1,1′-biphenyl]-2-yl)sulfonyl)-4-fluoro-N-(4-(methylsulfonyl)but-3-en-2-yl)piperidine-4-carboxamide]
0.68	0.462	C[C@H](/C=C\S(C)(=O)=O)NC(=O)C1(F)CCN(S(=O)(=O)c2ccc(Cl)cc2-c2ccccc2)CC1 [Compound 20, (R,Z)-1-((5-chloro-[1,1′-biphenyl]-2-yl)sulfonyl)-4-fluoro-N-(4-(methylsulfonyl)but-3-en-2-yl)piperidine-4-carboxamide]
1	1.23	COc1ccc(S(=O)(=O)N2CCC(F)(C(=O)N[C@H](C)/C=C\S(C)(=O)=O)CC2)c(-c2ccccc2)c1 [Compound 21, (R,Z)-4-fluoro-1-((5-methoxy-[1,1′-biphenyl]-2-yl)sulfonyl)-N-(4-(methylsulfonyl)but-3-en-2-yl)piperidine-4-carboxamide]
0.77	0.785	COc1ccc(S(=O)(=O)N2CCC(F)(C(=O)N[C@H](C)/C=C\S(C)(=O)=O)CC2)c(-c2cccc(Cl)c2)c1 [Compound 22, (R,Z)-1-((3′-chloro-5-methoxy-[1,1′-biphenyl]-2-yl)sulfonyl)-4-fluoro-N-(4-(methylsulfonyl)but-3-en-2-yl)piperidine-4-carboxamide]
0.17	0.232	COc1ccc(S(=O)(=O)N2CCC(F)(C(=O)N[C@H](C)/C=C\S(C)(=O)=O)CC2)c(-c2ccccc2C)c1 [Compound 24, (R,Z)-4-fluoro-1-((5-methoxy-2′-methyl-[1,1′-biphenyl]-2-yl)sulfonyl)-N-(4-(methylsulfonyl)but-3-en-2-yl)piperidine-4-carboxamide]
0.29	0.238	COc1ccc(S(=O)(=O)N2CCC(F)(C(=O)N[C@H](C)/C=C\S(C)(=O)=O)CC2)c(-c2ccccc2Cl)c1 [Compound 25, (R,Z)-1-((2′-chloro-5-methoxy-[1,1′-biphenyl]-2-yl)sulfonyl)-4-fluoro-N-(4-(methylsulfonyl)but-3-en-2-yl)piperidine-4-carboxamide]
0.384	0.371	COc1ccc(S(=O)(=O)N2CCC(F)(C(=O)N[C@H](C)/C=C\S(C)(=O)=O)CC2)c(-c2cccc(F)c2Cl)c1 [Compound 26, (R,Z)-1-((2′-chloro-3′-fluoro-5-methoxy-[1,1′-biphenyl]-2-yl)sulfonyl)-4-fluoro-N-(4-(methylsulfonyl)but-3-en-2-yl)piperidine-4-carboxamide]
0.45	0.43	COc1ccc(S(=O)(=O)N2CCC(F)(C(=O)N[C@H](C)/C=C\S(C)(=O)=O)CC2)c(-c2ccc(F)cc2Cl)c1 [Compound 27, (R,Z)-1-((2′-chloro-4′-fluoro-5-methoxy-[1,1′-biphenyl]-2-yl)sulfonyl)-4-fluoro-N-(4-(methylsulfonyl)but-3-en-2-yl)piperidine-4-carboxamide]
	0.24	N#C/C=C/CNC(=O)C1(F)CCN(S(=O)(=O)c2cnc(Br)cc2-c2ccccc2Cl)CC1 [Compound 278, (E)-1-((6-bromo-4-(2-chlorophenyl)pyridin-3-yl)sulfonyl)-N-(3-cyanoallyl)-4-fluoropiperidine-4-carboxamide]

SMILES	IC50 (PIK3CA) [µM]	IC50 (PIK3CA_C242) [µM]
CCCCOc1cccc(-c2cc(Cl)ccc2S(=O)(=O)N2CCC(F)(C(=O)N[C@@H](C)/C=C\S(C)(=O)=O)CC2)c1 [Compound 13, (S,Z)-1-((3′-butoxy-5-chloro-[1,1′-biphenyl]-2-yl)sulfonyl)-4-fluoro-N-(4-(methylsulfonyl)but-3-en-2-yl)piperidine-4-carboxamide]	0.48	0.34
